2 molecules from patent US20250144187A1, “COMBINATION OF HYDROLASES AND ANTI-MICROORGANISM DRUGS AND USES THEREOF” (CENTRE FOR EYE AND VISION RESEARCH LIMITED, priority 2023, published 2025) can be followed below.

One test relates to MRSA-infected skin wound. Briefly: Rat skin infection model, cefdinir/lysozyme. It counts as in vivo, Sprague Dawley (SD) rats. The following applies: combination therapy vs control or mono-therapy groups. Here is the method: 16) Rat skin Infection model. […] Others were infected by about 5×10^11 CFU of mid-log phase MRSA from our own collection. Briefly, all rats were firstly pre-depilated by using 10% Na2S to get an uncovered back area of 4 cm×4 cm prior to 24 hours for the anesthetization on rats. Then, the skin of anesthetized rat was removed until fascial region under sterile condition, followed by bacterial infection by spraying 5×10^11 CFU of MRSA suspension on wound (3 cm×3 cm). To collect these bacterial suspensions, mid-log phase MRSA would be collected by centrifugation at 4500 g for 15 minutes washed with PBS for 3 limes and re-suspended in cold PBS to get bacterial suspension with an initial density of about 4.0×10^11 CFU/ml according to pre-experiment. Next, 1.25 ml of bacterial suspensions was inoculated into wound, Normal saline was used to replace bacterial suspension in uninfected group. After 1 hour infection, wound of infected rat was covered by sterile medical gauze. All sterile medical gauzes were 0.2 g/cm^2, which were further covered by two layers of sterile gauzes and fixed by sterile tapes. After that, rats were monitored until they were fully awake, followed by return to their cages. After 24 hours infection, these sterile medical gauzes were replaced with new sterile medical gauzes. […] About 4-μm sections was analyzed by using the hematoxylin and eosin (H-E) staining. […]

Another test concerns MRSA. Briefly: High-throughput screening of 1953 FDA-approved compounds with human lysozyme. It counts as cell-based, Staphylococcus aureus. The following applies: compound 25 μM + 1 mg/ml lysozyme, 24-hour. As for the experimental part:
1) High-throughput screening. According to standard screening method [Zhong. […] Commun. 11, 523 (2020)], 1953 FDA-approved compounds from our drugs library at a fixed concentrations of 25 μM were screened against methicillin-resistant Staphylococcus aureus (MRSA) and Staphylococcus epidermis (a coagulase negative Staphylococci, MRSE), in combination with human lysozyme. Specifically, these compounds were added into bacterial suspensions (1×10^5 CFU/ml, in LB medium) in the absence or presence of 1 mg/ml lysozyme. LB medium without bacteria served as background group. Then, the real-time growth curvet of MRSA were monitored per hour and for 24 hours. Absorbance at 600 am (OD600) of bacterial culture at the time point of 24-hour was also measured. The inhibition ratio (%) was calculated as (ODcontrol−ODsample)/(ODcontrol−ODbackground)×100%. […] Herein, the relative and apparent inhibition ratios indicated the combination effect and potential toxicity of compound, respectively. Synergy effect was defined as the relative inhibition ratio of ≥90%. All assays were performed in triplicate.

For the next test, the system named is MRSA ocular infection. The test is described as follows: Ocular infection model, tedizolid phosphate/lysozyme. It counts as in vivo, C57BL/6 mice. An excerpt: 20) Ocular infection model. According to the reported method [Zhang, Z et al., Curt. Protoc, mouse Bot 7, 55-63 (2017)], 40 C57BL/6, male mice ([…]) were used to evaluate the combination effect in the ocular infection model. Specifically, all mice were divided into 5 groups (4 infected groups and 1 uninfected group, 8 mice per group). Among than, 32 mice in infected groups were infected by slowly inoculating about 2.5×10^7 CFUs of mid-log phase MRSA into each ocular surface. To collect these mid-tog phase ARA, a colony of MRSA cultured in LB-agar plate was firstly picked up and inoculated into fresh LB medium for overnight incubation at 37° C. Then, the overnight culture was diluted (1:300) into fresh LB medium for continuous culture until bacterial OD600 was about 0.6. […] Next, 2.5 μl of bacterial suspensions were slowly inoculated into each ocular surface of anesthetized C57/BL6 mouse on the side of surgical bed. […] After that, they were repeated from the air-anesthetizing room and monitored until they were fully awake, followed by retuned to their cages. […] Then, according to the standard protocol^28, 3 μl of tear fluid was gradient-diluted at 10-fold in 96-well plat to figure out the initial number of viable bacteria in tear fluid according to quantitative grown colony after overnight culture. […]

Turning to `C=CC1=C(C(=O)O)N2C(=O)[C@@H](NC(=O)/C(=N\O)c3csc(N)n3)[C@H]2SC1` [cefdinir, Cefdinir], in the test with MRSA-infected skin wound, the “decrease in the level of IL-6 in wounds” value was greater than 16% and the “decrease in the level of ROS in wounds” value is given as “more than 36%”. Also, in the test with MRSA, the “Growth inhibition ratio (mean ± SD, %) MRSA” value came out at 85.21 ± 9.84%.
For the molecule `Cn1nnc(-c2ccc(-c3ccc(N4C[C@H](COP(=O)(O)O)OC4=O)cc3F)cn2)n1` [tedizolid phosphate, Tedizolid Phosphate], the “expression level of SP-D in tear fluids” value with MRSA ocular infection (combination group compared with uninfected group) was 1.5 fold. Further, the “bacterial load in both tear fluids and eyeball homogenates” value in the test with MRSA ocular infection (combination therapy (0.125 mg/ml tedizolid phosphate + 100 mg/ml lysozyme)) amounted to 0.01 fold.
